Test [1] deals with T1, MEK1 (Recombinant Human Protein) (Homo sapiens, UniProt Q02750).
T1 construct: purchased Invitrogen PV3093
In words: MEK1 kinase inhibition assay (Z'-LYTE Kinase Assay Kit-Ser/Thr 03 Peptide). Type of test: biochemical. The conditions noted are these: 4 hours at 37° C, read-out: IC50 for inhibiting MEK kinase (MEK1). As to the method: MEK1 kinase activity was tested in vitro by the following method.
MEK kinase used in the assay: MEK1 (Recombinant Human Protein, Invitrogen, Catalog No. PV3093).
Kit used in the assay: Z′-LYTE™ Kinase Assay Kit-Ser/Thr 03 Peptide (Invitrogen, Catalog No. PV3176).
The following in vitro assay was used to determine the activity of the compounds of the present invention for inhibiting the […] MEK kinase. The test compound was dissolved in dimethyl sulfoxide to the desired concentration. 1× Buffer A (Invitrogen, Catalog No. PV3189) was prepared, ATP was diluted with 1× Buffer A to obtain 400 μM ATP solution, appropriate amounts of Z′-LYTE™ Ser/Thr 03 Peptide (Invitrogen, Catalog No. PV3200), MEK kinase (MEK1) Enzymes and 1× Buffer A were mixed, and appropriate amounts of Z′-LYTE™ Ser/Thr 03 phosphoPeptide substrate (Invitrogen, Catalog No. PV3215) and 1× Buffer A were formulated into a mixture to be tested. The 4% DMSO solution of the test compound was prepared from 1× buffer and DMSO solution of the test compound. 2.5 μL DMSO solution of the test compound was added to a reaction well, and then 1× Buffer A, 2.5 μL of 400 μM ATP solution, 5 μL of enzyme and substrate mixture were added to become a 10 μL of reaction system. The reaction system was incubated for 4 hours at 37° C., and a mixture was prepared according to Reagent A:Buffer B=1:1024. 5 μL of a mixture of Reagent A (Invitrogen, Catalog No. PV3295) and Buffer B (Invitrogen, Catalog No. P3127) was added to a reaction well, the reaction system was incubated for 60 minutes at 25° C. The fluorescence was read by a NovoStar ELISA with excitation wavelength: 400 nm, and emission wavelength: 445 nm and 520 nm.
The activity of the compounds of the present invention: The above assay was used to determine the biochemical activity of the compounds of the present invention for inhibiting MEK kinase (MEK1).

Another test deals with Colo205 cell. In words: Proliferation inhibition on Colo205 (CCK8). The format is cell-based. The conditions noted are these: Homo sapiens, COLO 205, Colo205, 72 hours. The source says:
Cell line used in the assay: Colo205 (Cell Bank of the Chinese Academy of Sciences, Catalog No. TCHu102).
The following in vitro cell assay is to determine the activity of the compounds of the present invention for inhibiting the proliferation of human colon cancer cell, and the activity is expressed as IC50. General programs of this kind of assay were as follows: First, the cell line to be tested (purchased from Cell Bank of the Chinese Academy of Sciences) was inoculated in a 96-well culture plate with a suitable cell concentration of 4000 cells/mL medium, and was cultured in a carbon dioxide incubator at 37° C., then grown overnight. The medium was replaced by new medium added with a series of concentrations (10000 nM, 1000 nM, 100 nM, 10 nM, 1 nM, 0.1 nM) of the test compound solutions. The plates were placed back in the incubator, and continuously cultured for 72 hours. After 72 hours, CCK8 (Cell Counting Kit-8, Catalog No.: CK04, purchased from colleagues chemical company) method was used to determine the proliferation inhibition activity of the test compounds. IC50 values were calculated from the inhibition data of the test compounds at a series of different concentrations.
The above assay was used to determine the biochemical activity of the compounds of the present invention.

T1 sequence (Q02750 whole entry): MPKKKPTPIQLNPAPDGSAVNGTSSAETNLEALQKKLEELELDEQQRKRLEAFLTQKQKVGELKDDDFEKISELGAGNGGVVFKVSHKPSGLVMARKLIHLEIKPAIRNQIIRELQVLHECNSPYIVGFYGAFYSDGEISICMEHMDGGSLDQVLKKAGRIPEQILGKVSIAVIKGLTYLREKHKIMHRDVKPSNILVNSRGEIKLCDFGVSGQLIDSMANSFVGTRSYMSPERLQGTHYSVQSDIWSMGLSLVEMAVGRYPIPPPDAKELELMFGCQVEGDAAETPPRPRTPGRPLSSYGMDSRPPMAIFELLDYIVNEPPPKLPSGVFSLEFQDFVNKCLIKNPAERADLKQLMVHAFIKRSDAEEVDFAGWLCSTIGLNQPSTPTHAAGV

For the compound `CCS(=O)(=O)Nc1cccc(Oc2cc(=O)n(C)c(Nc3ccc(I)cc3F)c2C(=O)NC)c1C` [Example 2, N,1-dimethyl-4-(3-(ethylsulfonamido)-2-methylphenoxy)-2-((2-fluoro-4-iodophenyl)amino)-6-oxo-1,6-dihydropyridine-3-carboxamide], the IC50 amounted to 19 nM in test [1] and 4.7 nM with Colo205 cell.

With `CCS(=O)(=O)Nc1cccc(Oc2c(C(N)=O)c(Nc3ccc(I)cc3F)n(C)c(=O)c2Cl)c1C` [Example 5, 4-(3-(ethylsulfonamido)-2-methylphenoxy)-2-((2-fluoro-4-iodophenyl)amino)-1-methyl-5-chloro-6-oxo-1,6-dihydropyridine-3-carboxamide], the IC50 in test [1] came out at 4 nM.

With `CCS(=O)(=O)Nc1cccc(Oc2c(C(N)=O)c(Nc3ccc(I)cc3F)n(C)c(=O)c2F)c1C` [Example 6, 4-(3-(ethylsulfonamido)-2-methylphenoxy)-2-((2-fluoro-4-iodophenyl)amino)-1-methyl-5-fluoro-6-oxo-1,6-dihydropyridine-3-carboxamide], the IC50 in test [1] turned out to be 3.4 nM.

On to `Cc1c(NC(=O)C2CC2)cccc1Oc1cc(=O)n(C)c(Nc2ccc(I)cc2F)c1C(N)=O` [Example 7, 4-(3-(cyclopropanecarboxamido)-2-methylphenoxy)-2-((2-fluoro-4-iodophenyl)amino)-1-methyl-6-oxo-1,6-dihydropyridine-3-carboxamide], for which the IC50 in test [1] came out at 5.5 nM; with Colo205 cell, 0.4 nM.

As to `CCC(=O)Nc1cccc(Oc2cc(=O)n(C)c(Nc3ccc(I)cc3F)c2C(N)=O)c1C` [Example 8, 4-(3-propionamido-2-methylphenoxy)-2-((2-fluoro-4-iodophenyl)amino)-1-methyl-6-oxo-1,6-dihydropyridine-3-carboxamide], the IC50 in test [1] is 3.2 nM; with Colo205 cell it was 0.5 nM.

As to `Cc1c(Oc2cc(=O)n(C)c(Nc3ccc(I)cc3F)c2C(N)=O)cccc1O[C@H]1CCOC1` [Example 9, (S)-2-((2-fluoro-4-iodophenyl)amino)-1-methyl-4-(2-methyl-3-((tetrahydrofuran-3-yl)oxy)phenoxy)-6-oxo-1,6-dihydropyridine-3-carboxamide], the figures for the concentration for half-maximal inhibition (IC50) (in test [1]; in the test with Colo205 cell) were 6 nM and 0.3 nM, respectively.

For the compound `CNC(=O)c1cccc(Oc2cc(=O)n(C)c(Nc3ccc(I)cc3F)c2C(N)=O)c1C` [Example 10, 4-(2-methyl-3-(methylcarbamoyl)phenoxy)-2-((2-fluoro-4-iodophenyl)amino)-1-methyl-6-oxo-1,6-dihydropyridine-3-carboxamide], the IC50 in test [1] is 6.3 nM; in the test on Colo205 cell, 4.3 nM.

As for `Cc1c(Oc2cc(=O)n(C)c(Nc3ccc(I)cc3F)c2C(N)=O)cccc1C(=O)NC1CC1` [Example 11, 4-(3-(cyclopropylcarbamoyl)-2-methylphenoxy)-2-((2-fluoro-4-iodophenyl)amino)-1-methyl-6-oxo-1,6-dihydropyridine-3-carboxamide], the IC50 was 5.5 nM in test [1] and 4.3 nM with Colo205 cell.

Turning to `Cc1c(Oc2cc(=O)n(C)c(Nc3ccc(I)cc3F)c2C(N)=O)cccc1O[C@@H]1CCOC1` [Example 12, (R)-2-((2-fluoro-4-iodophenyl)amino)-1-methyl-4-(2-methyl-3-((tetrahydrofuran-3-yl)oxy)phenoxy)-6-oxo-1,6-dihydropyridine-3-carboxamide], the IC50 turned out to be 5.1 nM in test [1] and 0.7 nM with Colo205 cell.

Take `CC(=O)c1cccc(Oc2cc(=O)n(C)c(Nc3ccc(I)cc3F)c2C(N)=O)c1C` [Example 13, 4-(3-acetyl-2-methylphenoxy)-2-((2-fluoro-4-iodophenyl)amino)-1-methyl-6-oxo-1,6-dihydropyridine-3-carboxamide]: the IC50 in test [1] came to 5.5 nM; with Colo205 cell, 2.9 nM.

Turning to `Cc1c(Cl)cccc1Oc1cc(=O)n(C)c(Nc2ccc(I)cc2F)c1C(N)=O` [Example 14, 4-(3-chloro-2-methylphenoxy)-2-((2-fluoro-4-iodophenyl)amino)-1-methyl-6-oxo-1,6-dihydropyridine-3-carboxamide], the figures for the IC50 (in test [1]; in the test with Colo205 cell) were 6.2 nM and 4.2 nM, respectively.

As to `Cc1ccc(Oc2cc(=O)n(C)c(Nc3ccc(I)cc3F)c2C(N)=O)c(Cl)c1` [Example 15, 4-(2-chloro-4-methylphenoxy)-2-((2-fluoro-4-iodophenyl)amino)-1-methyl-6-oxo-1,6-dihydropyridine-3-carboxamide], the results for the IC50 (in test [1]; with Colo205 cell) were 8.2 nM and 10.2 nM, respectively.

With `COc1cccc(Oc2cc(=O)n(C)c(Nc3ccc(I)cc3F)c2C(N)=O)c1C` [Example 16, 4-(3-methoxy-2-methylphenoxy)-2-((2-fluoro-4-iodophenyl)amino)-1-methyl-6-oxo-1,6-dihydropyridine-3-carboxamide], the IC50 came to 9.5 nM in test [1] and 11.5 nM in the test on Colo205 cell.

On to `Cc1ccc(Oc2cc(=O)n(C)c(Nc3ccc(I)cc3F)c2C(N)=O)c(F)c1` [Example 17, 4-(2-fluoro-4-methylphenoxy)-2-((2-fluoro-4-iodophenyl)amino)-1-methyl-6-oxo-1,6-dihydropyridine-3-carboxamide], for which the IC50 worked out at 8.4 nM in test [1] and 2 nM in the test on Colo205 cell.

With `Cc1cccc(Oc2cc(=O)n(C)c(Nc3ccc(I)cc3F)c2C(N)=O)c1C` [Example 18, 4-(2,3-dimethylphenoxy)-2-((2-fluoro-4-iodophenyl)amino)-1-methyl-6-oxo-1,6-dihydropyridine-3-carboxamide], the results for the IC50 (in test [1]; in the test on Colo205 cell) were 7.9 nM and 1.4 nM, respectively.

Turning to `Cc1cccc(Oc2cc(=O)n(C)c(Nc3ccc(I)cc3F)c2C(N)=O)c1F` [Example 19, 4-(2-fluoro-3-methylphenoxy)-2-((2-fluoro-4-iodophenyl)amino)-1-methyl-6-oxo-1,6-dihydropyridine-3-carboxamide], the IC50 in test [1] stood at 5.8 nM; with Colo205 cell, 0.8 nM.

For the compound `Cc1ccc(Oc2cc(=O)n(C)c(Nc3ccc(I)cc3F)c2C(N)=O)c(C)c1` [Example 20, 4-(2,4-dimethylphenoxy)-2-((2-fluoro-4-iodophenyl)amino)-1-methyl-6-oxo-1,6-dihydropyridine-3-carboxamide], the IC50 turned out to be 2.9 nM in test [1] and 1.7 nM in the test with Colo205 cell.

In the case of `Cc1cccc(C)c1Oc1cc(=O)n(C)c(Nc2ccc(I)cc2F)c1C(N)=O` [Example 21, 4-(2,6-dimethylphenoxy)-2-((2-fluoro-4-iodophenyl)amino)-1-methyl-6-oxo-1,6-dihydropyridine-3-carboxamide], the results for the IC50 (in test [1]; with Colo205 cell) were 6.3 nM and 10.2 nM, respectively.

With `Cc1c(F)cccc1Oc1c(C(N)=O)c(Nc2ccc(I)cc2F)n(C)c(=O)c1F` [Example 26, 5-fluoro-4-(3-fluoro-2-methylphenoxy)-2-((2-fluoro-4-iodophenyl)amino)-1-methyl-6-oxo-1,6-dihydropyridine-3-carboxamide], in test [1], the concentration for half-maximal inhibition (IC50) is 3.9 nM.

As to `Cc1c(F)cccc1Oc1cc(=O)n(C)c(Nc2ccc(I)cc2F)c1C(=O)NC[C@@H](O)CO` [Example 27, (R)-N-(2,3-dihydroxypropyl)-4-(3-fluoro-2-methylphenoxy)-2-((2-fluoro-4-iodophenyl)amino)-1-methyl-6-oxo-1,6-dihydropyridine-3-carboxamide], the 50% inhibitory concentration (IC50) in test [1] was 28.3 nM.

In the case of `Cc1c(F)cccc1Oc1cc(=O)n(C)c(Nc2ccc(I)cc2F)c1C(=O)NC[C@H](O)CO` [Example 28, (S)-N-(2,3-dihydroxypropyl)-4-(3-fluoro-2-methylphenoxy)-2-((2-fluoro-4-iodophenyl)amino)-1-methyl-6-oxo-1,6-dihydropyridine-3-carboxamide], the half-maximal inhibitory concentration (IC50) in test [1] was found to be 26 nM.

Turning to `Cc1ccncc1Oc1cc(=O)n(C)c(Nc2ccc(I)cc2F)c1C(N)=O` [Example 33, 2-((2-fluoro-4-iodophenyl)amino)-1-methyl-4-((4-methylpyridin-3-yl)oxy)-6-oxo-1,6-dihydropyridine-3-carboxamide], the IC50 in test [1] came out at 7.3 nM.

The values are drawn from US10064848B2, “Pyridic ketone derivatives, method of preparing same, and pharmaceutical application thereof” (Shanghai Hengrui Pharmaceutical Co., Ltd., priority 2013, dated 2018).
